Results as given in US11046690B2, “Pyridazinones and methods of use thereof” (Goldfinch Bio, Inc., priority 2018, dated 2021).

Columns and labels:
[1] = test system: PAN induced glomerular kidney injury; experiment: Puromycin aminonucleoside (PAN)-induced glomerular injury in rats; type: in vivo, Sprague-Dawley rats; conditions: PAN-injured rats
Source text: The objective of this study is to evaluate the dose-dependent effects of compound 100 on PAN induced glomerular kidney injury as indexed by albuminuria. Eighty (80), male Sprague-Dawley rats weighing approximately 125-150 g and approximately 5-6 weeks of age were acquired from Charles River. They were fed a standard chow diet (Harlan 8640), housed under standard conditions, and allowed to acclimate for at least 5 days prior to study inception. On D-2, rats were placed into weight-matched treatment groups and were placed, individually housed, into metabolic cages for the balance of the study. A 24 hour baseline (Day 0) urine was collected followed by a baseline blood collection via conscious tail venous puncture. Rats were then administered vehicle or test article. Two (2) hours following administration of vehicle or test agent on Day 0, rats received an administration of (5 ml/kg, s.c.) vehicle (sterile saline) or puromycin aminonucleoside (PAN; challenge agent; 75 mg/kg) dissolved in vehicle. Intermittent (Day 4, 7 and 10) 24 hour urine volumes were determined and samples (4 samples/animal/time point; 0.5 ml/sample) were obtained. Additionally, intermittent (Day 4, 7 and 10) blood samples were collected via conscious tail venous puncture 2 hours±1 minute post-AM dose. Immediately following the last blood collection, rats were anesthetized with isoflurane, tissues harvested, and animals sacrificed. Endpoint kidney weights and indices were obtained. Urine samples were immediately flash-frozen in liquid N2 and stored at −80° C. until analyzed. Whole blood samples collected on K3EDTA were processed appropriately for the production of plasma for PK measurements.

[2] = test system: AT1R transgenic rat model of FSGS; experiment: AT1R transgenic rat model of FSGS; type: in vivo; conditions: AT1R transgenic rats, UniNX and AngII infusion, orally once daily 3 mg/kg or 10 mg/kg, up to 3 weeks
Method: The AT1R transgenic rat model of FSGS is characterized by podocyte-specific expression of human AT1R. […] See Zhou et al., Science (2017), vol. 358 (6368), 1332-1336. In the present study, pathophysiology in AT1R transgenic rats was accelerated with unilateral nephrectomy (UniNX) and minipump AngII infusion. Compound 100 was dosed orally once daily at 3 mg/kg or 10 mg/kg, and the urine protein creatinine ratio was determined at -1, 0, 1, 2, and 3 weeks of treatment. […] UniNX, AngII […], and compound 100 […] occurred at the time points indicated.

TRPC5 = molecular target: T1, TRPC5 (Homo sapiens, UniProt Q9UL62); experiment: TRPC5 activity assay (FLIPR calcium fluorescence, Riluzole stimulation); type: cell-based; conditions: HEK-TREx hTRPC5 cells, 30 μM Riluzole stimulation; read-out: TRPC5 (IC50 class)
T1 construct: expressed in transfected cells
T1 sequence (Q9UL62 1-973): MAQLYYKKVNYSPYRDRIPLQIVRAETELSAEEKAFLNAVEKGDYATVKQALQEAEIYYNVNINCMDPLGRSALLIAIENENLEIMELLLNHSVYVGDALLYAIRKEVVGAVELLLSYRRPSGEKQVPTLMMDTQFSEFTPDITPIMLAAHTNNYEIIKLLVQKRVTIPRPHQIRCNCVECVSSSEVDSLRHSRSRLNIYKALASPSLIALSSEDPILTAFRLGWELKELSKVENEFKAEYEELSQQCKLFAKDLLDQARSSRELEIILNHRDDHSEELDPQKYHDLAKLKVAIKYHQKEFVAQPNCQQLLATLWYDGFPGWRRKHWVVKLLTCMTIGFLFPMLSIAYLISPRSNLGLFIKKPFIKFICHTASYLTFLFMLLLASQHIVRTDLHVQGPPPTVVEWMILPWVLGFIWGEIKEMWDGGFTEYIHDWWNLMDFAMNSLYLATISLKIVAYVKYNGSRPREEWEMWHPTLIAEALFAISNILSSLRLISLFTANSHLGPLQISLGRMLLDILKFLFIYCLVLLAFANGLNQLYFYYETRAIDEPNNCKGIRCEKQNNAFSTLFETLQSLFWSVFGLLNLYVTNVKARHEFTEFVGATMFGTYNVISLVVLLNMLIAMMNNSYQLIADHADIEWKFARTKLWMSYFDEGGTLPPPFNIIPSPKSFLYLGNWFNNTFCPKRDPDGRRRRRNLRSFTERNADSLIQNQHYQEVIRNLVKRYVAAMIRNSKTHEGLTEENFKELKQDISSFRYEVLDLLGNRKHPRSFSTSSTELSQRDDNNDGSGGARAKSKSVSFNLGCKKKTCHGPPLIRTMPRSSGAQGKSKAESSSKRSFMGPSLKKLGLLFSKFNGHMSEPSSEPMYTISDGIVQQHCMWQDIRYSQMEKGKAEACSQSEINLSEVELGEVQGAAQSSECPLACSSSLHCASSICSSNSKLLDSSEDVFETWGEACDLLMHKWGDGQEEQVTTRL
Method: ICLN-1633 cells (HEK-TREx hTRPC5) expressing TRPC5 were generated as follows. Commercially available HekTrex-293 cells were seeded at 0.7×10^6 cells/well in a 1×6-well plate 24 hrs prior to transfection using 2 mL cell growth media containing no antibiotics (1× DMEM/high glucose (Hyclone #SH30022.02); 10% fetal bovine serum (Sigma) 2 mM sodium pyruvate, 10 mM HEPES). […] On day 2, 2 μg of plasmid DNA plus 6 μl of Xtreme-GENE HP reagent in Optimem (200 μl total volume) was prepared and incubated for 15 min at room temperature. This plasmid solution was then gently overlayed dropwise onto each well and the plate was gently swirled to mix complex with the media for approximately 30 seconds. Transfected cells were incubated at 37° C. in a 10%/CO2 incubator for 24 hrs. The transfected cells were harvested and transferred into 2×150 mm dishes containing cell growth media with no antibiotics at 37° C.
The next day selection was initiated to generate a stable pool by adding cell growth media containing 150 μg/mL Hygromycin and 5 μg/mL Blasticidin and cells were allowed to grow. Media with the selection agent was changed every 1-2 days as needed to remove dead cells. After 7 days, the hygromycin concentration was reduced to 75 μg/mL and cells growth was allowed to continue.
Single clones were selected as follows. The stable pool was diluted to 10 cells/mL and seeded (100 μl/well) into 24×96 well plates (˜1 cell/well) and allowed to grow for 7 days in cell growth media. Fresh media (100 μl) was added and the cells allowed to grow for another 1-2 weeks and then stored frozen or used immediately.
10-point dose response curves were generated using the Echo-550 acoustic dispenser. Compound source plates were made by serially diluting compound stocks to create 10 mM, 1 mM, and 0.1 mM solutions in DMSO into Echo certified LDV plates. The Echo then serially spotted 100%/DMSO stock solutions into source dose response plates to generate a 4-fold dilution scheme. 100%0/DMSO was added to the spotted dose response plates to bring the final volume to 5 μl. 300 nl of the dose response stock plate was then spotted into pre-incubation and stimulation assay plates. 50 μl of pre-incubation buffer and 100 μl of stimulation buffer was then added to the plates resulting in a final assay test concentration range of 30 μM to 0.0001 μM with a final DMSO concentration of 0.3%.
Human ICLN-1633 cells expressing were plated onto 384 well, black PDL-coated microplates and maintained in TRPC5 growth media the day prior to use for experiments. TRPC5 expression was induced by the application of 1 μg/mL tetracycline at the time of plating. […] Cells are incubated at room temperature, protected from light, for 60-90 minutes. After the incubation period, the dye is removed and replaced with 10 μl of EBSS. Cell, pre-incubation and stimulation plates are loaded onto the FLIPR-II and the assay is initiated. The FLIPR measures a 10 second baseline and then adds 10 μl of 2X compounds (or controls). Changes in fluorescence are monitored for an additional 5 minutes. After the 5 minute pre-incubation, 20 μl of 2X Riluzole (with 1X compound or controls) is added to the cell plate. The final Riluzole stimulation concentration in the assay is 30 μM. After the Riluzole addition, changes in fluorescence are monitored for an additional 5 minutes.
Compound modulation of TRPC5 calcium response was determined as follows. After the Englerin A, fluorescence was monitored for a 5-minute period. The maximum relative fluorescence response (minus the control response of 1 μM of an internal control compound known to maximally block TRPC5 calcium response, the “REF INHIB” in the formula below) was captured and exported from the FLIPR.
Compound effect is calculated as % inhibition using the following formula:
[formula] wherein “RFU” is the relative fluorescent units.

IC50 (TRPC5) | SMILES | other results
– | O=c1[nH]ncc(N2CCc3c(ncnc3Oc3ccc(F)cc3C(F)(F)F)C2)c1Cl [Compound 100, 4-chloro-5-[4-[4-fluoro-2-(trifluoromethyl)phenoxy]-5H,6H,7H,8H-pyrido[3,4-d]pyrimidin-7-yl]-2,3-dihydropyridazin-3-one] | urinary albumin excretion ([1]; 30 mg/kg once daily (QD), at 10 days): Significant reductions; urinary albumin excretion ([1]; 30 mg/kg twice daily (BID), at 7 and 10 days): Significant reductions; urine protein creatinine ratio [2]: efficacious
> 1000 nM | CC1Cc2c(ncnc2Oc2ccc(F)cc2Cl)CN1c1cn[nH]c(=O)c1Cl (single isomer, unassigned) [Compound 117a] | –
< 50 nM | CC(c1ccc(F)cc1C(F)(F)F)c1ncnc2c1CCN(c1cn[nH]c(=O)c1Cl)C2 (single isomer, unassigned) [Compound 126, 4-Chloro-5-[4-[(1 S)-1-[4-fluoro-2-(trifluoromethyl)phenyl]ethyl]-5H,6H,7H,8H-pyrido[3,4-d]pyrimidin-7-yl]-2,3-dihydropyridazin-3-one] | –
– | NC(=O)c1ncn([C@@H]2O[C@H](CO)[C@@H](O)[C@H]2O)c1O [Mizoribine, reference compound] | albuminuria ([1]; positive control compound): efficacious in reducing albuminuria
< 50 nM | O=c1[nH]ncc(N2CCc3c(nc([C@@H](O)CO)nc3Oc3ccc(F)cc3C(F)(F)F)C2)c1Cl (single isomer, unassigned) [Compound 135] | –
50 to 500 nM | CC(c1ccc(F)cc1C(F)(F)F)c1ncnc2c1CCN(c1cn[nH]c(=O)c1Cl)C2 (single isomer, unassigned) [Compound 126a] | –
< 50 nM | CC(O)c1nc2c(c(Oc3ccc(F)cc3C(F)(F)F)n1)CCN(c1cn[nH]c(=O)c1Cl)C2 (single isomer, unassigned) [Compound 129, 4-Chloro-5-[4-[4-fluoro-2-(trifluoromethyl)phenoxy]-2-[(1 S)-1-hydroxyethyl]-5H,6H,7H,8H-pyrido[3,4-d]pyrimidin-7-yl]-2,3-dihydropyridazin-3-one] | –
< 50 nM | O=c1[nH]ncc(N2CCc3c(nc([C@H](O)CO)nc3Oc3ccc(F)cc3C(F)(F)F)C2)c1Cl (single isomer, unassigned) [Compound 137] | –
< 50 nM | CC(O)c1nc2c(c(Oc3ccc(F)cc3C(F)(F)F)n1)CCN(c1cn[nH]c(=O)c1Cl)C2 (single isomer, unassigned) [Compound 130] | –
